Laboratory results published in patent publication US11103488B2, “Methods of treating autoimmune, respiratory and inflammatory disorders by inhalation of roflumilast N-oxide” (Incozen Therapeutics Pvt. Ltd., priority 2013, dated 2021).
Where two headings read alike, the source gives them in different places.

Columns and labels:
[1] = Pulmonary kinetics by intratracheal route, single dose; assay type: in vivo, Wistar rats; settings: single dose 1 mg/kg IT
Method: Male and female Wistar rats were weighed and randomized for groups for various time points. Roflumilast N-oxide was prepared as a suspension in a suitable vehicle for intratracheal administration. For intratracheal dosing, animals were anesthetized with ketamine (50 mg/kg; i.p.) and roflumilast N-oxide was administered via an Intratracheal Microsprayer® Aerosolizer for Rat with a 0.5 ml glass syringe (Model IA-1B-R-GL500) (Penn Century, US). A volume level of 0.5 ml/kg was administered into the airway system of the rat at a dose of 1.0 mg/kg for the single dose and multiple dose study. The animals were kept under normal regular diet conditions and rat chew diet was provided ad libitum throughout the study. The blood and lung samples (all collections each of 150 μl from each animal) were collected according to the sampling schedule. Blood samples were collected from orbital sinus into the microfuge tubes containing dipotassium EDTA as an anticoagulant. Blood samples were centrifuged immediately with a speed of 1000 g for 10 minutes at 4° C. and separated plasma samples were frozen at below −80° C. and stored until analysis. The plasma and lung concentrations of roflumilast N-oxide in all samples were analyzed by LC-MS/MS (using X-Calibur 2.0.7 software) as per the established method. The samples below the lower limit of quantification (LOQ) were mentioned as (BLQ) below level of quantification in raw data and the results were tabulated accordingly. Pharmacokinetic parameters Cmax, AUC0-t, AUC0-∞, Tmax, t1/2, Kel, VZ, and CLZ were estimated for the above concentrations using WinNonlin (Phoenix 6.1 software) and the results were tabulated. Pharmacokinetic parameters in plasma were calculated from concentration data as ng/ml. Cmax and AUC values were reported in terms of ng/ml and ng·h/ml, respectively.
Pharmacokinetic parameters in the lungs were calculated from concentration data as ng/g. Cmax and AUC values were reported in terms of ng/g and ng·h/g, respectively. The lung to plasma concentration ratio was calculated by assuming equal to 1 the plasma density. The time-mean plasma concentration plots for roflumilast N-oxide were done using Graph pad Prism 5.02 software.

[2] = Lung microsome metabolic stability, human; assay type: in vitro ADME; settings: 1 μM test item, 60 minutes, NADPH
Method: Metabolic stability studies were conducted using rat, dog and human lung microsomes. The protocol for the studies with rat, dog, and human lung microsomes (from Xenotech, USA) is provided below.
0.4 mg protein was preincubated with 2 mM NADPH (cofactor) in phosphate buffer (pH˜7.4) for 15 minutes at […] and then added with 1 μM test item and incubated further for 60 minutes in triplicate. The reaction mixture was terminated with methanol containing an internal standard and centrifuged further to analyze the test item remaining in the supernatant by LC-MS/MS. The percent parent compound remaining was calculated in comparison with similar samples terminated at 0 minutes.

[3] = 7-day repeat dose safety study; assay type: in vivo, Wistar Rats
Method: In order to determine the safety of roflumilast N-oxide by inhalation compared to roflumilast by oral administration, a 7- and 14-day repeat dose safety study was conducted according to the protocol given in Table 5 below.

[4] = Particle size distribution after micronization (Alpine Spiral Jet Mill); assay type: physicochemical; settings: micronized
From the text: Laser diffraction measurement of particle size can use a dry method (wherein a suspension of the compound/salt in an airflow crosses the laser beam) or a wet method (wherein a suspension of the compound/salt in a liquid dispersing medium, such as isooctane (e.g. if compound is soluble in isooctane) or 0.1% Tween 80 in water, crosses the laser beam). With laser diffraction, particle size may be measured, for example, with a Malvern Mastersizer or Sympatec apparatus. For example, particle size measurement and/or analysis by laser diffraction can use any or all of (preferably all of) the following: a Malvern Mastersizer longbed version, a dispersing medium of 0.1% Tween 80 in water, a stir rate of ca. 1500 rpm, ca. 3 mins sonification prior to final dispersion and analysis, a 300 RF (Reverse Fourier) lens, and/or the Fraunhofer calculation with Malvern software. Unless specified otherwise, all d50 and d90 measurements are measured by laser diffraction using a wet method.
Provided below is an exemplary method used for micronization of roflumilast N-Oxide using an Alpine Spiral Jet Mill (HOSOKAWA). The process involved the following steps • 15 gm of Roflumilast N-oxide was weighed. • Main knob for compressed air supply was opened. • Adjusted venture pressure at 6.0 bar and ring pressure at 0.5 bar. • Roflumilast N-oxide was added at a feed rate of ˜200 mg/min manually through the hopper. • After completion of micronization, main air supply knob was turned off and micronized roflumilast N-oxide was collected

SMILES: O=C(Nc1c(Cl)c[n+]([O-])cc1Cl)c1ccc(OC(F)F)c(OCC2CC2)c1 [Roflumilast N-oxide]
- Tmax ([1]; both sexes, Wistar, rat, inhaled or intranasal, lung, read-out: Tmax, Lung, N-Oxide): 0.25 h
- half-life ([1]; both sexes, Wistar, rat, inhaled or intranasal, lung, read-out: t1/2, Lung, N-Oxide (converted)): 2.54 h
- AUC(0-t) ([1]; both sexes, Wistar, rat, inhaled or intranasal, plasma, read-out: AUC0-t, Plasma, N-Oxide): 4160 ng·h/mL
- Cmax ([1]; both sexes, Wistar, rat, inhaled or intranasal, plasma, read-out: Cmax, Plasma, N-Oxide): 530 ng/mL
- Tmax ([1]; both sexes, Wistar, rat, inhaled or intranasal, plasma, read-out: Tmax, Plasma, N-Oxide): 0.25 h
- half-life ([1]; both sexes, Wistar, rat, inhaled or intranasal, plasma, read-out: t1/2, Plasma, N-Oxide (converted)): 5.43 h
- AUC0-inf, Lung, N-Oxide ([1]; lung): 47960 ng·h/g
- AUC0-t, Lung, N-Oxide ([1]; lung): 47880 ng·h/g
- Cmax, Lung, N-Oxide ([1]; lung): 26350 ng/g
- Percent Parent Compound Remaining, Human Non Smoker ([2]; human non smoker lung microsomes): 91.5%
- Percent Parent Compound Remaining, Human Smoker ([2]; human smoker lung microsomes): 99.3%
- MORTALITY ([3]; Intratracheal, 1000 ug/kg/day, 7 days): No Mortality
- Therapeutic window (safe dose relative to ED50) ([3]; intratracheal 1000 μg/kg versus ED50 of 27 μg/kg): more than 37 fold
- Overall safety in repeat dose study ([3]; intratracheal administration, 1000 μg/kg): found to be safe
- Particle Size Distribution (PSD), D10 [4]: 0.777 μm
- Particle Size Distribution (PSD), D50 [4]: 1.564 μm
- Particle Size Distribution (PSD), D90 [4]: 3.021 μm
